Consider two molecules from paper PMC12362587, “Untargeted Diversity-Oriented Synthesis for the Discovery of New Antitumor Agents: An Integrated Approach of Inverse Virtual Screening, Bioinformatics, and Omics for Target Deconvolution” (Journal of Medicinal Chemistry, 2025).

The target in test [1] is T1, Poly [ADP-ribose] polymerase 1 (Homo sapiens, UniProt P09874).
T1 construct: purchased BPS Bioscience
In words: PARP1 Colorimetric Assay Kit (BPS Bioscience). Particulars: top concentration 30 μM; read-out: EC50 or IC50, Poly [ADP-ribose] polymerase 1. The format is biochemical. The protocol: The assay was performed in a volume of 50 μL in 96-well transparent plates. The PARP1 assay kit (BPS Bioscience, USA) was performed by first coating the 96-well plate with histone proteins, then left at 4 °C overnight. Next, Poly [ADP-ribose] polymerase 1 (PARP1) enzyme (final concentration, 0.33 ng per reaction), a mixture of biotinylated NAD^+ (PARP substrate) and compounds were incubated for 1 h at room temperature. The compounds were added at different concentrations in the reaction buffer, starting from a final concentration of 30 μM. Buffer with the same amount of DMSO (1%) was used as a negative control. After incubation, the plate was treated with streptavidin-HRP followed by the addition of the colorimetric HRP substrate generating a colored solution. The generated signal was read at an absorbance of 450 nm using a microplate reader with UV/vis spectrophotometer (Multiskan Go, Thermo Fisher Scientific, Waltham, MA, USA). Experiments were performed in triplicate. IC50 values were calculated with GraphPad Prism 8.0 software by nonlinear dose–response inhibition regression.

Test [2] concerns the target T2, G-protein coupled receptor 55 (Homo sapiens, UniProt Q9Y2T6).
T2 construct: Eurofins (contract assay)
The test can be described thus: Cell Based Antagonist Arrestin LeadHunter Assay. The settings on record: Eurofins, read-out: EC50 or IC50, G-protein coupled receptor 55, antagonist mode. An excerpt: (§1) For displacement assays on G-protein coupled receptor 55 (GPR55), Vasopressin V2 receptor (V2R), Adenosine A1 receptor (A1AR), Fibroblast growth factor receptor 1 (FGFR1), Vascular endothelial growth factor receptor 2 (VEGFR2), Platelet-derived growth factor receptor beta (PDGFRB), Vascular endothelial growth factor receptor 1 (VEGFR1), Thromboxane Synthase (TXS) and Phosphodiesterase 10A (PDE10A), we commissioned the Eurofins company which employed its specific experimental methods, accessible at the link: https://www.eurofins.com/.

In the next test the target is T3, BRD4(BD1) (Homo sapiens, UniProt O60885).
T3 construct: purchased BPS Bioscience (printed as 'BSP') 32514
In words: BRD4 (BD1) Inhibitor Screening Assay Kit (AlphaScreen). Particulars: read-out: EC50 or IC50, bromodomain-containing protein 4. The format is binding. For orientation: In Alpha technology, singlet oxygen from a donor bead excites a nearby acceptor bead.

A further test concerns the target T4, A1 Human Adenosine GPCR (Homo sapiens, UniProt P30542).
T4 construct: Eurofins (contract assay)
T4 sequence (P30542 1-326): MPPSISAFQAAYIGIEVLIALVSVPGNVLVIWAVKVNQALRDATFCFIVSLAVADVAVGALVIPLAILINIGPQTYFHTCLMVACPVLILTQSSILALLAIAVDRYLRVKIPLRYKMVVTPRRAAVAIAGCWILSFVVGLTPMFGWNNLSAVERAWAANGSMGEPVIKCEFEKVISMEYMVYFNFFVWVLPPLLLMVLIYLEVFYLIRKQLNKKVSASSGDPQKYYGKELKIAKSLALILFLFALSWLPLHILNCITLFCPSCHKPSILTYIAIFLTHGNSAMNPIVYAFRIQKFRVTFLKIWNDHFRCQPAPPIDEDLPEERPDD
The test can be described thus: Binding Antagonist Radioligand LeadHunter Assay. Particulars: Eurofins, read-out: EC50 or IC50, A1 Human Adenosine GPCR, antagonist radioligand.
Source text: as §1

The target in a further test is T5, rat TRPM8 (Rattus norvegicus, UniProt Q8R455).
T5 construct: expressed in transfected cells; host or cells: HEK-293
The test can be described thus: Ca2+-imaging assay with Fluo-4 AM. The format is cell-based. Particulars: inhibition of icilin 0.25 μM, HEK-293 cells overexpressing rat TRPM8, Fluo-4 AM; read-out: EC50 or IC50, transient receptor potential M8. How it is done: (§2) HEK-293 cells, stably overexpressing recombinant rat TRPM8 or rat TRPA1, were cultured as monolayers in 100 mm Petri dishes using Minimum Essential Media supplemented with 2 mM glutamine, 1% nonessential amino acids, 10% FBS, and maintained at 37 °C under 5% CO2. On the day of the experiment, both nontransfected and transfected HEK-293 cells were loaded for 1 h at room temperature in the dark with the calcium-sensitive fluorescent probe Fluo-4 AM (4 μM, dissolved in dimethyl sulfoxide with 0.02% Pluronic F-127). After loading, cells were washed twice with Tyrode’s solution (145 mM NaCl, 2.5 mM KCl, 1.5 mM CaCl2, 1.2 mM MgCl2, 10 mM D-glucose, 10 mM HEPES, pH 7.4) and transferred to a quartz cuvette (approximately 100,000 cells) in a spectrofluorometer (PerkinElmer LS50B; λEX = 488 nm, λEM = 516 nm) under continuous stirring. Fluorescence was recorded before and after the addition of various concentrations of test compounds. The observed effects were normalized to the response elicited by ionomycin (4 μM). Baseline fluorescence values from nontransfected HEK-293 cells were subtracted from the measurements obtained in transfected cells. The potency of the test compounds was expressed as the concentration required to elicit a half-maximal agonist effect (EC50), measured as half-maximal increases in intracellular calcium concentration ([Ca^2+]-i). The efficacy of TRPA1 agonists was reported as a percentage of the maximal effect induced by allyl isothiocyanate (AITC, 100 μM). Antagonistic or desensitizing effects were assessed by preincubating cells with the test compounds in the quartz cuvette for 5 min before stimulating them with the specific TRP agonist (AITC, 100 μM for TRPA1, or icilin, 0.25 μM for TRPM8). IC50 values were determined as the concentration required to produce a half-maximal inhibition of the agonist effect, with the agonist-induced [Ca^2+]-i response set at 100%. Measurements of [Ca^2+]-i in TRPM8-expressing cells were conducted at 22 °C using a Fluorescence Peltier System (PTP-1, PerkinElmer). All experiments were performed in triplicate or greater. Curve fitting (sigmoidal concentration–response with variable slope) and parameter estimation were conducted using GraphPad Prism 10 (GraphPad Software Inc., San Diego, CA).

A further test concerns the target T6, rat TRPA1 (Rattus norvegicus, UniProt Q6RI86).
T6 construct: expressed in transfected cells; host or cells: HEK-293
In words: Ca2+-imaging assay with Fluo-4 AM. The settings on record: agonist effect, HEK-293 cells overexpressing rat TRPA1, Fluo-4 AM; read-out: EC50 or IC50, transient receptor potential A1. The format is cell-based. The protocol:
as §2

For orientation: IC50 means the midpoint of a concentration-inhibition curve. As a reminder, the EC50 is the concentration needed to bring the measured effect to its halfway point.

T6 sequence (Q6RI86 whole entry): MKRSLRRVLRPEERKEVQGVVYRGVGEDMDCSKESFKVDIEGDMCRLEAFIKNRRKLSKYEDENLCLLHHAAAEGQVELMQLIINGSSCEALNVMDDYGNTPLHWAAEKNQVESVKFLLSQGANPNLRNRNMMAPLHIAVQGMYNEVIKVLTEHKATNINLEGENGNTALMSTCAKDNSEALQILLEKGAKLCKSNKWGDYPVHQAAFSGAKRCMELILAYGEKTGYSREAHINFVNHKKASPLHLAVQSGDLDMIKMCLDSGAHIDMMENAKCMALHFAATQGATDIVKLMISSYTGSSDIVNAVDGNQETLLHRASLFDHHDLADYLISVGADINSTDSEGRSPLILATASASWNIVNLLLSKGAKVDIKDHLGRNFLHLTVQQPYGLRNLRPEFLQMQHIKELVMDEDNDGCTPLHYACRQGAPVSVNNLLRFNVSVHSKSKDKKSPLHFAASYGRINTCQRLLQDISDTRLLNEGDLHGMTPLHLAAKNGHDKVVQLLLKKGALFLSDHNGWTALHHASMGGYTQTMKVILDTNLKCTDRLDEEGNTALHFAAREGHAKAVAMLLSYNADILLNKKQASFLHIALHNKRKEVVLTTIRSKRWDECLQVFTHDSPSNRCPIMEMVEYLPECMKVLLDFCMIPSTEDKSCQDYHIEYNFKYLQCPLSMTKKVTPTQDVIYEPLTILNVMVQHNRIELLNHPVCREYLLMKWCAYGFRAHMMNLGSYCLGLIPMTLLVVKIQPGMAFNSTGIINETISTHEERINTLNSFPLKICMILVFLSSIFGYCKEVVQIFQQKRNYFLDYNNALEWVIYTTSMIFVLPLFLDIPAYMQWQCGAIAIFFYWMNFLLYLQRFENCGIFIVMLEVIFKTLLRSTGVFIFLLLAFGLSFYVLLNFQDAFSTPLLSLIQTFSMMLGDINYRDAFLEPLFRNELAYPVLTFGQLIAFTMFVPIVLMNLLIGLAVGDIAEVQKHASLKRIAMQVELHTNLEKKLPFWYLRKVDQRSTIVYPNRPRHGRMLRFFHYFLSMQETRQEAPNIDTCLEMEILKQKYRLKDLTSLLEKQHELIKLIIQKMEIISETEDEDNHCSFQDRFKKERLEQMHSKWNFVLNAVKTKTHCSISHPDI
T5 sequence (Q8R455 whole entry): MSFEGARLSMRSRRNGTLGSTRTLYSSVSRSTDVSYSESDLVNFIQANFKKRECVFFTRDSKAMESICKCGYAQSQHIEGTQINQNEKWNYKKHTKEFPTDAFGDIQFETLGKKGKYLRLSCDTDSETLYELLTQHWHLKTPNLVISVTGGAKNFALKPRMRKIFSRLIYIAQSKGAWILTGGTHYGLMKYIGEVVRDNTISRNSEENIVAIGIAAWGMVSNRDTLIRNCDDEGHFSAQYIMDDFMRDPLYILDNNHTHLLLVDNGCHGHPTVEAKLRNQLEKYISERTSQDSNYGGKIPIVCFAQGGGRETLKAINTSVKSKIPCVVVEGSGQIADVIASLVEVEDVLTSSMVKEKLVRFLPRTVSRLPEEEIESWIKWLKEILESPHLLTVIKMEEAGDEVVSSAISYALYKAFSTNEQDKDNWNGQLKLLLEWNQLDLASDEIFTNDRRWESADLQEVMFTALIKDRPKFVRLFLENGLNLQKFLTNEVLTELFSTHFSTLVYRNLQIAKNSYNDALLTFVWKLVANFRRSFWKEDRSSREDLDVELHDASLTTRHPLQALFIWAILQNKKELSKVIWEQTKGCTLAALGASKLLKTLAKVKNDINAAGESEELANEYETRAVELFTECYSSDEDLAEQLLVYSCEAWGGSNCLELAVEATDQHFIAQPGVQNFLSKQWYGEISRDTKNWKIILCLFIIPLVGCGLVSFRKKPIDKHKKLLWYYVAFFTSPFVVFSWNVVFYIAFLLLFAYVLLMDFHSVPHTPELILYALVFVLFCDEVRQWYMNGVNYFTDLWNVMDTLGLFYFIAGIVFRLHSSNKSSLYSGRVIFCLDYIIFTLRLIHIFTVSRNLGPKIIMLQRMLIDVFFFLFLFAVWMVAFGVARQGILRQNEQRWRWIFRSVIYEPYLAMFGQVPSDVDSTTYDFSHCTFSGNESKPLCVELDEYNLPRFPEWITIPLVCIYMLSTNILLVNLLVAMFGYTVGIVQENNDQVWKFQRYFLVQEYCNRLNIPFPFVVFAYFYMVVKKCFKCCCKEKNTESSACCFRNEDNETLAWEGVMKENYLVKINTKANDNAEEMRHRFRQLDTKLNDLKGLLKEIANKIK
T1 sequence (P09874 whole entry): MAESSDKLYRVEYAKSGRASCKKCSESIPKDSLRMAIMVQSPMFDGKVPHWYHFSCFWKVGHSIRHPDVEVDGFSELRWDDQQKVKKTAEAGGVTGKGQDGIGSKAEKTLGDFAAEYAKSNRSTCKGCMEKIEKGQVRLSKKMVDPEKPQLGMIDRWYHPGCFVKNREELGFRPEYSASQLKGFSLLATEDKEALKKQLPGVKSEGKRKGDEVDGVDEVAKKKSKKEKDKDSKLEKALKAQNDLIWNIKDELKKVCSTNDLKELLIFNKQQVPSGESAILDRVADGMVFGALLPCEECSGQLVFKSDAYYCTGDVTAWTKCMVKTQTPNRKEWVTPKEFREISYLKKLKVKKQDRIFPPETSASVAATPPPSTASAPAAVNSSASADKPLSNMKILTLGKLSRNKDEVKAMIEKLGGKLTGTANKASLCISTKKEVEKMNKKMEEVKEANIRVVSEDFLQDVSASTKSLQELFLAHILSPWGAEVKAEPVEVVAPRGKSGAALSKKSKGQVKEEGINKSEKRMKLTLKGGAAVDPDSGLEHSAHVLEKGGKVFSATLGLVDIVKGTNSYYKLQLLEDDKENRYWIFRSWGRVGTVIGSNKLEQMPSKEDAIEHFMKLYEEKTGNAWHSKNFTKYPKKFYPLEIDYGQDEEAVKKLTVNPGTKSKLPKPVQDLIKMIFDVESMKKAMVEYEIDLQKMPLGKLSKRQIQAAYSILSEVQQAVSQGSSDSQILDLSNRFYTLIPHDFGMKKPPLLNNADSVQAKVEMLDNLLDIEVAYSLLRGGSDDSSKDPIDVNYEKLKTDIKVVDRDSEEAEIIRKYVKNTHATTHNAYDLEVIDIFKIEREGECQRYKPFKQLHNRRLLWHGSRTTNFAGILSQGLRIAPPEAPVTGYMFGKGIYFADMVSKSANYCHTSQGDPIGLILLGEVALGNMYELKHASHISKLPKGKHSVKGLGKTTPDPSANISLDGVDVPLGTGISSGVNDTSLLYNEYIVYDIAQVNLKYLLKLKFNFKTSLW
T2 sequence (Q9Y2T6 whole entry): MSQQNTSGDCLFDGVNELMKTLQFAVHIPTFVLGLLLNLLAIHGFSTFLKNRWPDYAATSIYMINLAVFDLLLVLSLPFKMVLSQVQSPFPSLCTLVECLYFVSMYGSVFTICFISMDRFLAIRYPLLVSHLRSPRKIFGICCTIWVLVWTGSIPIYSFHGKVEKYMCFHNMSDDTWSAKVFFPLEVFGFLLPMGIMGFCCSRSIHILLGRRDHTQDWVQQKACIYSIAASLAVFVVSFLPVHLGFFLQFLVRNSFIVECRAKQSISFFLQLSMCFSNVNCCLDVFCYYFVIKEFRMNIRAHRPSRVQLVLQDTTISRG
Method for BRD4(BD1): Compounds were first tested in triplicate at a concentration of 10 μM, using (+)-JQ1 as reference compound.
After that, 10 μL of acceptor and donor beads (250-fold diluted) were added, protecting them from light. The results were measured 60 min later using the Enspire microplate analyzer (PerkinElmer, California, USA). Each compound was tested in triplicate, and GraphPad Prism (version 8.0) was used to analyze the data, employing the equation log­(inhibitor) vs normalized response-variable slope

Take `CC(C)C[C@H]1C(=O)N(Cc2ccc(C(F)(F)F)cc2)c2ccccc2C(=O)N1Cc1ccc(C(F)(F)F)cc1` [Compound 31, (S)-3-Isobutyl-1,4-bis(4-(trifluoromethyl)benzyl)-3,4-dihydro-1H-benzo[e][1,4]diazepine-2,5-dione]: the half-inhibitory concentration (IC50) is greater than 30 µM in test [1]; no less than 30 µM in test [2]; 1.19 ± 0.29 µM at BRD4(BD1); no less than 30 µM on A1 Human Adenosine GPCR; greater than 30 µM at rat TRPM8. For the same molecule, the EC50 at rat TRPA1 is 0.2 ± 0.09 µM.
Take `CC(C)C[C@@H](C(=O)OCc1ccccc1)N1Cc2ccccc2NC1=O` [Compound 63, Benzyl (S)-4-Methyl-2-(2-oxo-1,4-dihydroquinazolin-3(2H)-yl)pentanoate]: the concentration for half-maximal inhibition (IC50) in test [1] is greater than 30 µM; in test [2], no less than 30 µM; on BRD4(BD1), 0.11 ± 0.09 µM; on A1 Human Adenosine GPCR, no less than 30 µM; at rat TRPM8 it was 0.36 ± 0.08 µM. The concentration giving a half-maximal response (EC50) on rat TRPA1 turned out to be 2.54 ± 1.2 µM.
